pIC50: −log10 of the molar value.

human PD-L1 / Human PD-1, sequence (Q9NZQ7 19-239): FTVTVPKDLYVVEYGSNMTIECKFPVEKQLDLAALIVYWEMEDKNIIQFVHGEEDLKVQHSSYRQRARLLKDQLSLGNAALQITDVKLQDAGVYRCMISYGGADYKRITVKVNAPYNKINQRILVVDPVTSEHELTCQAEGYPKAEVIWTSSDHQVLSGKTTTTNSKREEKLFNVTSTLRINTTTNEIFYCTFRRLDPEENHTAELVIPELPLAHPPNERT

The experiment addresses human PD-L1 / Human PD-1 (Homo sapiens (Human), UniProt Q9NZQ7). Description: Enzyme-Linked Immunosorbent Assay (ELISA), PD-1/PD-L1 binding. As to conditions: plates coated with human PD-L1, biotinylated human PD-1 added. As to the method:
96 Well plates were coated with 1 μg/mL of human PD-L1 (obtained from R&D) in PBS overnight at 4′° C. The wells were then blocked with 2% BSA in PBS (W/V) with 0.05% TWEEN-20 for 1 hour at 37′° C. The plates were washed 3 times with PBS/0.05% TWEEN-20 and the compounds were serial diluted (1:5) in dilution medium and added to the ELISA plates. Human PD-1 and biotin 0.3 μg/mL (ACRO Biosystems) were added and incubated for 1 hour at 37° C. then washed 3 times with PBS/0.05% TWEEN-20. A second block was performed with 2% BSA in PBS (WNV)/0.05% TWEEN-20 for 10 min at 37° C. and the plates were washed 3 times with PBS/0.05% TWEEN-20. Streptavidin-HIRP was added for 1 hour at 37° C. then the plates were washed 3 times with PBS/0.05% TWEEN-20. TMB substrate was added and reacted for 20 min at 37° C. A stop solution (2 N aqueous H2SO4) was added. The absorbance was read at 450 nm using a micro-plate spectrophotometer.
The compound `Cc1ccccc1-c1cccc(-c2ccc3c(c2)CCNC3)c1C` [Compd 1.117, 6-(2,2′-dimethyl-[1,1′-biphenyl]-3-yl)-1,2,3,4-tetrahydroisoquinoline] had a pIC50 of 5.00 to 6.00.
The value for `Cc1c(OCCCN2[C@H](C)CC[C@H]2C)cccc1-c1cccc(-c2ccc(CCN)cc2)c1C` [Compd 1.118] was more than 6.00; that for `Cc1c(OCCCN2[C@H](C)CC[C@H]2C)cccc1-c1cccc(-c2ccc(C(C)(C)N)cc2)c1C` [Compd 1.119] was more than 6.00; that for `Cc1c(OCCCN2[C@H](C)CC[C@H]2C)cccc1-c1cccc(-c2ccc3c(c2)CNC3)c1C` [Compd 1.120] was more than 6.00.
In turn, `Cc1c(OCCCN2[C@H](C)CC[C@H]2C)cccc1-c1cccc(-c2ccc(CN)cc2)c1C` [Compd 1.121] gave a pIC50 of more than 6.00.
The value for `Cc1c(OCCCN2[C@H](C)CC[C@H]2C)cccc1-c1cccc(-c2ccc(CN(C)C)cc2)c1C` [Compd 1.122] was more than 6.00; that for `Cc1c(OCCCN2CCC2(C)C)cccc1-c1cccc(-c2ccc3c(c2)CNCCC3)c1C` [Compd 1.123] was more than 6.00.
The value for `Cc1c(OCCCN2CCC2(C)C)cccc1-c1cccc(-c2ccc3c(c2)CNCC3)c1C` [Compd 1.124] was more than 6.00.
For `Cc1c(OCCCN2CCC2(C)C)cccc1-c1cccc(-c2ccc3c(c2)CCNC3)c1C` [Compd 1.125] the value was more than 6.00; for `Cc1c(-c2ccc3c(c2)CCNC3)cccc1-c1ccc2c(c1)OCCO2` [Compd 1.126], more than 6.00; for `Cc1c(-c2ccc(CN)cc2)cccc1-c1ccc2c(c1)OCCO2` [Compd 1.127], 5.00 to 6.00.
`Cc1c(-c2ccc3c(c2)CNCC3)cccc1-c1ccc2c(c1)OCCO2` [Compd 1.128]: the pIC50 was 5.00 to 6.00.

The record behind these values is US11485708B2, “Compounds for treatment of PD-L1 diseases” (CHEMOCENTRYX, INC., priority 2019, dated 2022).
